Test systems include CCRF-CEM leukemia; TK-10 renal; HCC-2998 colon; IGROV1 ovarian; U251 CNS; OVCAR-8 ovarian; CAKI-1 renal; SK-MEL-28 melanoma; COLO 205 colon.
Common to all, as to assay: NCI anticancer screen, dose series, 48 h

The structures appear in SMILES notation.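 Protocol summary: plate cells (96-well), add compound at 5 concentrations, incubate 48 h, interpolate endpoints linearly. Definition used: TGI = concentration required for complete inhibition of growth.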

Take `Oc1ccc(Br)cc1C=Nc1ccc(N=Cc2cc(Br)ccc2O)cc1`: the TGI in the test on CCRF-CEM leukemia, in the test on TK-10 renal, in the test on HCC-2998 colon, with IGROV1 ovarian, in the test with U251 CNS and with OVCAR-8 ovarian was more than 100 µM throughout. Besides, the TGI in the test on CAKI-1 renal is more than 100 µM.

As to `O=c1c2ccccc2nc(-c2ccccc2)n1NC(=S)Nc1ccccc1`, the TGI in the test on CCRF-CEM leukemia, in the test on TK-10 renal, with SK-MEL-28 melanoma, with IGROV1 ovarian, in the test with COLO 205 colon and in the test on U251 CNS was more than 100 µM each time. Besides, the TGI in the test on OVCAR-8 ovarian and in the test with CAKI-1 renal was more than 100 µM throughout.

Turning to `OCCNCCOc1ccc(/C(=C(/Cl)c2ccccc2)c2ccccc2)cc1`, the TGI with CCRF-CEM leukemia amounted to 9.87 µM; with TK-10 renal, 15.9 µM; in the test on SK-MEL-28 melanoma, 3.16 µM; in the test with IGROV1 ovarian, 25.4 µM; in the test with COLO 205 colon, 22.8 µM; in the test with U251 CNS it was 21.1 µM. In addition, the TGI with OVCAR-8 ovarian came out at 28 µM; in the test with CAKI-1 renal, 25.7 µM.

As for `COC1=C(Br)C(=O)c2nc(C)ccc2C1=O`, the TGI in the test with TK-10 renal is 32.4 µM; in the test with SK-MEL-28 melanoma, 33.1 µM; with HCC-2998 colon, 32.2 µM; in the test on IGROV1 ovarian, 33.9 µM; in the test on COLO 205 colon, 24.6 µM; with U251 CNS it was 28.5 µM. In addition, the TGI in the test on OVCAR-8 ovarian stood at 16.6 µM; with CAKI-1 renal, 29.3 µM.

For `CC(=O)OC1C2CCC1C1C2C2(Cl)C(Cl)=C(Cl)C1(Cl)C2(Cl)Cl` (stereo not given), the TGI in the test on TK-10 renal was 28.8 µM; in the test on SK-MEL-28 melanoma, 34.3 µM; in the test with IGROV1 ovarian it was 36 µM; in the test with COLO 205 colon it was 28.3 µM; in the test with U251 CNS, 26.2 µM; in the test on OVCAR-8 ovarian, 29.6 µM. This molecule gave a TGI in the test with CAKI-1 renal of 27 µM.

Turning to `CCCCc1c2c(nc3c1CCC/C3=C\c1ccccc1)/C(=C/c1ccccc1)CCC2`, the TGI in the test with CCRF-CEM leukemia, in the test with TK-10 renal, with SK-MEL-28 melanoma, with HCC-2998 colon, in the test with IGROV1 ovarian and in the test with COLO 205 colon was more than 100 µM in each case. The TGI with U251 CNS and in the test with OVCAR-8 ovarian was more than 100 µM in each case.

As to `N#CC(C(=O)CCC(=O)Nc1cccc(C(F)(F)F)c1)c1ccc(Cl)cc1` (stereo not given), the TGI in the test with CCRF-CEM leukemia, with TK-10 renal, in the test with HCC-2998 colon, with IGROV1 ovarian, in the test on COLO 205 colon and with U251 CNS was more than 100 µM each time. The TGI in the test with OVCAR-8 ovarian and in the test with CAKI-1 renal was more than 100 µM each time.

For the molecule `Cc1cccc(C)c1NC(=O)C(=O)CC(=O)c1cccc([N+](=O)[O-])c1`, the TGI in the test on CCRF-CEM leukemia, in the test on TK-10 renal, in the test on SK-MEL-28 melanoma, in the test with IGROV1 ovarian, with COLO 205 colon and with U251 CNS was more than 100 µM throughout. Further, the TGI in the test on OVCAR-8 ovarian and in the test with CAKI-1 renal was more than 100 µM each time.

With `c1ccc(CSc2nc3ccccc3nc2-c2cccs2)cc1`, the TGI with CCRF-CEM leukemia, with TK-10 renal, in the test with SK-MEL-28 melanoma, in the test with HCC-2998 colon, in the test on IGROV1 ovarian and in the test on COLO 205 colon was more than 100 µM in each case. The TGI in the test with U251 CNS and with OVCAR-8 ovarian was more than 100 µM each time.

With `O=C(O)CN(c1ccccc1)S(=O)(=O)c1ccc([N+](=O)[O-])cc1`, the TGI in the test with CCRF-CEM leukemia, in the test with TK-10 renal, in the test on IGROV1 ovarian, in the test on COLO 205 colon, with U251 CNS and in the test with OVCAR-8 ovarian was more than 100 µM in each case. This molecule yielded a TGI with CAKI-1 renal of more than 100 µM.

Turning to `Cc1cc(C(C)(C)C)cc(Cc2cc(C(C)(C)C)cc(Cc3cc(C(C)(C)C)cc(C)c3O)c2O)c1O`, the TGI in the test with CCRF-CEM leukemia was determined as 9.04 µM; in the test with TK-10 renal, 30 µM; with IGROV1 ovarian it was 23.5 µM; in the test with COLO 205 colon it was 29.7 µM; in the test with U251 CNS, 14.9 µM; with OVCAR-8 ovarian it was 17.6 µM. Also, in the test on CAKI-1 renal, the TGI worked out at 25.6 µM.

Regarding `CC(=O)OCCOCNC(=S)N/N=C/c1ccc(Br)s1`, the TGI with CCRF-CEM leukemia, in the test with TK-10 renal, with SK-MEL-28 melanoma, with HCC-2998 colon, in the test with IGROV1 ovarian and in the test with COLO 205 colon was more than 100 µM each time. Besides, the TGI with U251 CNS and in the test on OVCAR-8 ovarian was more than 100 µM throughout.

`CC1=C(C(=O)NNS(=O)(=O)c2ccc(C)cc2)CC(C(=O)NNS(=O)(=O)c2ccc(C)cc2)=C(C)N1`: the TGI in the test on TK-10 renal, with SK-MEL-28 melanoma, in the test on HCC-2998 colon, with IGROV1 ovarian, in the test on COLO 205 colon and with U251 CNS was more than 100 µM each time. Further, the TGI with OVCAR-8 ovarian and in the test on CAKI-1 renal was more than 100 µM throughout.

(Values after PubChem BioAssay (NCI).)
